{"source": "patent US20250082611A1", "about": "“DOSING REGIMEN FOR AN NLRP3 INHIBITOR IN THE TREATMENT OF OSTEOARTHRITIS” (Novartis AG, priority 2021, published 2025)", "test": "First-in-human study: plasma pharmacokinetics in healthy subjects", "assay_type": "in vivo", "conditions": "for median lag time: fed; for half-life: read-out: mean t1/2 (converted); for Tmax: read-out: median tmax; for CL renal: urine, read-out: Renal clearance (converted); for dose proportionality of exposure: single doses", "text": "The study design comprised of 4 parts: single ascending dose (SAD; Part A), relative bioavailability of tablet formulations (Part B), multiple ascending dose (MAD; Part C), and relative bioavailability and food effect (Part D) (FIG. 2; RF=Reference Formulation (crystalline suspension); T2=Test Formulation 2 (crystalline tablet); T3=Test Formulation 3 (spray-dried dispersion suspension); T4=Test Formulation 4 (encapsulated crystalline tablet)). In each group of Parts A and C, 8 subjects were randomized in a 3:1 ratio to receive Compound IA (6 subjects) or matching placebo (2 subjects).\nFor Part A, eight cohorts of eight eligible subjects were enrolled. Each subject received a single oral dose of Compound IA (3, 10, 30, 100, 300 mg of crystalline suspension and 100, 300, 600 mg of spray-dried dispersion (SDD) under fasted conditions. As this was a FIH study, two sentinel subjects were dosed first, at least 24 hours before the rest of the cohort was dosed, to assure maximum safety. Part B was skipped because the data from Part A provided for an adequate comparison of crystalline and SDD formulations.\nFor part C, eligible subjects were enrolled in six different cohorts. […] Subjects were dosed in Part C following review available safety, tolerability and PK data from preceding groups in Part A.\n[…] […] Based on these doses, subjects were randomly assigned to 1 of 6 treatment sequences (1 subject per sequence) prepared using Williams design.\nIn single-dose part, blood samples were collected for determining the concentrations of Compound IA at the following time points relative to dosing on Day 1: at pre-dose and 0.25, 0.5, 0.75, 1, 1.5, 2, 3, 4, 6, 8, 12, 24, 36, and 48 hours post-dose, and at the follow-up visit. In multiple-dose part, relative to dosing on Days 1 and 14, samples were collected at pre-dose and 0.25, 0.5, 0.75, 1, 1.5, 2, 3, 4, 6, 8, and 12 hours post-dose; on Days 2, 4, 7, 9, and 11: at pre-dose; after the last dose on Day 14: at 24 and 36 hours (Day 15), and 48 hours (Day 16) post-dose; and at the follow-up visit.\nAll data were summarized using descriptive statistics and were listed and summarized in tabular and/or graphical form. Descriptive statistics for all relevant PK parameters included: n, arithmetic mean, standard deviation (SD), coefficient of variation (CV %), minimum, median, maximum, geometric mean, and geometric CV %. For tmax only median, minimum, and maximum are presented. PK parameters were calculated using noncompartmental methods using software Phoenix Version 8.1. Concentrations below the lower limit of quantification (LLOQ) were treated as zero in summary statistics for concentration data only. The linear trapezoidal rule was used for AUC calculation. Regression analysis of the terminal plasma elimination phase for the determination of t1/2 included at least 3 data points after Cmax. Parameters with an adjusted r^2 below 0.80 were flagged but included in the descriptive statistics. The parameters AUC0-inf, % AUCextra, CL/F, and VZ/F with an % AUCextra above 20% were excluded from the descriptive statistics.\nIn Part A, dose proportionality was explored using a regression power model relating logarithmically (log)-transformed Cmax, AUC0-last, and AUC0-inf to the log-transformed dose level. Point estimates for the intercept and the slope and corresponding 90% confidence intervals (CIs) for the slope were calculated. For Part C, dose proportionality was not explored. In Part D, the relative bioavailability of the Test Formulation (crystalline tablet, SDD and crystalline tablet) versus the Reference Formulation (crystalline suspension), as well as the effect of food, was explored using an analysis of variance (ANOVA) model on the PK data.\nFor the following treatments, the least-squares geometric mean ratios were presented together with 90% CIs: 100 mg Compound IA tablet fasted over 100 mg Compound IA suspension fasted, and 100 mg Compound IA tablet fed over 100 mg Compound IA tablet fasted.", "key": {"[1]": {"conditions": "single dose 100 mg, crystalline suspension"}}, "note": "Entries after “also recorded” stand apart in the source; their conditions may differ. Like-named read-outs stand apart in the source and are kept apart here."}
{"smiles": "CC(C)(O)c1ncc([S@](N)(=O)=NC(=O)Nc2c3c(cc4c2CCC4)CCC3)s1", "note": "[Compound IA, (R)-N′-((1,2,3,5,6,7-hexahydro-s-indacen-4-yl)carbamoyl)-2-(2-hydroxypropan-2-yl) thiazole-5-sulfonimidamide]", "values": [{"measurement": "increase of AUC, fed (high-fat, high-calorie meal) vs fasted", "setting": "100 mg crystalline tablet", "result": 1.49, "unit": "fold"}, {"measurement": "increase of Cmax, fed (high-fat, high-calorie meal) vs fasted", "setting": "100 mg crystalline tablet", "result": 2.05, "unit": "fold"}, {"measurement": "Cmax lower for crystalline tablet than suspension", "setting": "100 mg, fasted", "result": 78, "unit": "%"}, {"measurement": "multiple dose PK", "setting": "after 2 weeks, multiple doses and formulations", "result": "linear"}, {"measurement": "absorption of crystalline material", "setting": "doses≥100 mg", "result": "solubility-limited absorption"}, {"measurement": "median lag time", "setting": "encapsulated crystalline tablets 25 mg bid", "result": 0.75, "unit": "h"}, {"measurement": "median lag time", "setting": "encapsulated crystalline tablets 50 mg bid", "result": 0.25, "unit": "h"}, {"measurement": "AUCs of subjects with heterogenous CYP2C9 genotypes versus normal CYP2C9 activity", "setting": "human, in vivo", "result": "higher"}, {"measurement": "oral clearance relative to human liver blood flow", "setting": "human, in vivo, po", "result": "≤ 2", "unit": "%"}, {"measurement": "renal elimination as share of oral dose", "setting": "human, in vivo, po", "result": "less than 0.8%"}, {"measurement": "half-life", "setting": "human, plasma, oral, 100 mg, suspension formulation", "result": 17.7, "unit": "h"}, {"measurement": "half-life", "setting": "human, plasma, oral, across QD and BID dose levels", "result": "9.83 to 16.2", "unit": "h"}, {"measurement": "Vd/F", "setting": "human, plasma, oral, steady state, across QD and BID dose levels, read-out: Vss/F", "result": "12.6 to 23.3", "unit": "L"}, {"measurement": "Tmax", "setting": "human, plasma, po, single oral doses 30-600 mg, fasted", "result": "1.5 to 3", "unit": "h"}, {"measurement": "Tmax", "setting": "human, plasma, po, single oral doses of suspensions, fasted, across dose levels", "result": "0.76 to 3", "unit": "h"}, {"measurement": "CL renal", "setting": "human, oral, Day 1", "result": "~0.0667", "unit": "mL/min"}, {"measurement": "CL renal", "setting": "human, oral, steady state (Day 14)", "result": "~0.133", "unit": "mL/min"}, {"measurement": "drug accumulation in reaching steady state", "setting": "once daily dosing", "result": "about 1.2 fold"}, {"measurement": "increase of AUC0-last, fed compared to fasted", "setting": "[1]", "result": 1.49, "unit": "fold"}, {"measurement": "increase of Cmax, fed compared to fasted", "setting": "[1]", "result": 2.05, "unit": "fold"}, {"measurement": "dose proportionality of exposure", "setting": "SDD suspension 100-600 mg, fasted", "result": "dose-proportionally; also recorded: dose-proportional increase"}, {"measurement": "dose proportionality of exposure", "setting": "crystalline suspension 3-300 mg, fasted", "result": "less than dose-proportional"}, {"measurement": "median tmax", "setting": "single oral doses of suspensions, fasted, across dose levels", "result": "0.76 to 3.0", "unit": "h"}, {"measurement": "CLss/F", "setting": "steady state, across QD and BID dose levels", "result": "~1.0", "unit": "L/h"}, {"measurement": "drug accumulation in reaching steady state", "setting": "twice daily dosing", "result": 2, "unit": "fold"}]}
